Assay results from PubChem BioAssay (NCI).
Where “and” joins values, the source holds several entries; their conditions need not be identical. Identical values can stand only once.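 Five compound concentrations were applied to cells in 96-well plates for 48 hours; endpoints were derived by simple linear interpolation of the resulting dose-response curve. Abbreviation: GI50, concentration required for 50% inhibition of growth. The concentration for full growth arrest is given as TGI.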 Where a SMILES comes first, the peptide text is derived from it. [ ]: non-standard residue; d: D form. The star is where a group is joined. X13 = OC[C@H](CC1CCCCC1)N*; Aib = CC(C)(N)C(=O)O

The compounds below were run on MDA-MB-468 breast (assay: growth of human tumour cells (NCI), 48 h).
In the case of `CC1=C/C=C/C(=O)O[C@@H]([C@H](C)[C@H](O)[C@@H](C)NC(=O)C(C)C)[C@H](C)/C=C/C(C)=C/[C@H]2C=CCC[C@@]2(C)\C=C\1`, the GI50 is reported as 110 nM and 23.5 nM and the TGI is reported as 6410 nM.
`Oc1c(C(Nc2ccccn2)c2cccc(Oc3ccccc3)c2)ccc2cccnc12` (stereo unspecified) was tested, and the GI50 was 441 nM and the TGI was 8920 nM.
`COc1ccc(-c2cc(/C=C3\C(=O)Nc4cc(Cl)ccc43)[nH]n2)cc1` was tested, and the GI50 was 2620 nM and the TGI was 9480 nM.
`O=C(c1ccccc1)C(Cl)C(Cl)c1ccccc1` (stereo unspecified) showed a GI50 of 1380 nM and a TGI of 4310 nM.
With `CNCc1cccc2c1OCCCCCCC(C)(O)CC(C)(C)S(=O)(=O)c1ccc(cc1)-c1cnc(N)c(n1)C(=O)N2` (stereo unspecified) the GI50 was 196 nM and the TGI was 1160 nM.
For `Cc1ccc(F)c(NC(=O)Nc2ccc(-c3cccc4[nH]nc(N)c34)cc2)c1`, the GI50 was 2370 nM and 1860 nM and the TGI was 5280 nM and 4610 nM.
`O=C([O][Hg][c]1ccccc1)c1ccccc1` was tested, and the GI50 was 435 nM and the TGI was 1940 nM.
In the case of `CN(C)C1CCN(Cc2ccc(NC(=O)c3cncc(C#Cc4cnc(N)c5ncccc45)c3)cc2C(F)(F)F)CC1`, the GI50 is reported as 6490 nM and the TGI is reported as 16500 nM.
Compound `O=C(/C=C/C12c3ccccc3C(c3ccccc31)C1C(=O)N(c3ccc(Cl)cc3)C(=O)C12)c1ccccn1` (stereo unspecified) has a GI50 of 398 nM.
In the case of `CNS(=O)(=O)OCC1OC(n2cnc3cncnc32)C(O)C1O` (stereo unspecified), the GI50 is reported as greater than 100000 nM and the TGI is reported as greater than 100000 nM.
Compound `COc1cc(-c2cc3ncccc3c3nc(OCCN(C)C)c4cccnc4c23)cc(OC)c1OC` has a GI50 of 919 nM and a TGI of 5360 nM.
Compound `CCN1CCC(CC(=O)Nc2n[nH]c3nnc(-c4cccc(F)c4F)cc23)CC1` has a GI50 of 3450 nM and a TGI greater than 23000 nM.
`Cc1ccc([P+](Cc2ccccc2)(c2ccccc2)c2ccccc2)cc1` was tested, and the GI50 was 517 nM and the TGI was 8640 nM.
For `C[C@@H](N)COc1ccc(-c2cnc3ccc(N[C@H](C)c4cccc(F)c4)nn23)cc1`, the GI50 was 1130 nM and the TGI was 2670 nM.
`CC(c1cc(Cl)ccc1O)c1cc(Cl)ccc1O` was tested, and the GI50 was 2980 nM and the TGI was 9470 nM.
In the case of `C[C@H](c1ccc(F)cc1CCCC(=O)O)N(c1cc(F)ccc1F)S(=O)(=O)c1ccc(Cl)cc1`, the GI50 is reported as 17300 nM and the TGI is reported as 84700 nM.
`Cc1ccc(-c2nc3nc(-c4ccc(F)cc4)nc(N4CCNCC4)c3o2)cc1` was tested, and the GI50 was 1740 nM and the TGI was 3380 nM.
For `CNC(=O)c1nn(C)c2c1C(C)(C)Cc1cnc(Nc3cccc(N4CCN(C)CC4)c3)nc1-2`, the GI50 was 348 nM and the TGI was 3300 nM.
`CCCCCCCCCCCCCC[n+]1ccccc1` gave a GI50 of 111 nM and a TGI of 631 nM.
With `COC1=CC(c2ccc[nH]2)=N/C1=C\c1[nH]c(C)c(C(=O)CCC(=O)Oc2ccc3c(c2)CCC2C3CC[C@]3(C)[C@@H](O)CC[C@@H]23)c1C` (stereo partly specified) the GI50 was 2520 nM and the TGI was 39800 nM.
For `CN1CC=C(c2cc(NC(=O)Nc3ccc(Oc4ccnc(NC(=O)C5CC5)c4)c(F)c3)cc(C(F)(F)F)c2)CC1`, the GI50 was 286 nM and the TGI was 1990 nM.
`CCCCCCC1N=C(N)N=C(N)N1c1cccc(Cl)c1` (stereo unspecified) gave a GI50 of 122 nM and a TGI of 936 nM.
Compound `COC(=O)c1ccc2nc(-c3cc4ccccc4n3C)n(CCCCOc3cc4c(cc3OC)C(=O)N3CCC[C@H]3C=N4)c2c1` has a GI50 of 356 nM and a TGI of 1260 nM.
Compound `Cc1ccccc1C1=C(c2cn(C)c3ccccc23)C(=O)NC1=O` has a GI50 of 15500 nM and a TGI greater than 25000 nM.
For `CS(=O)(=O)N1CCC(n2c(=O)c(Oc3ccc(F)cc3F)cc3cnc(NC4CCOCC4)nc32)CC1`, the GI50 was greater than 25000 nM and the TGI was greater than 25000 nM.
`NC(=O)c1cccc2c(N[C@H](CN3CCC3)c3ccc(Cl)c(C(F)(F)F)c3)ncnc12` showed a GI50 of 108 nM and a TGI of 1280 nM.
In the case of `CS(=O)(=O)CCNCc1ccc(-c2ccc3ncnc(Nc4ccc(OCc5cccc(F)c5)c(Cl)c4)c3c2)o1`, the GI50 is reported as 51.8 nM and 57.1 nM and 13 nM and the TGI is reported as 818 nM and 999 nM and 152 nM.
`CN1CCN(C(=O)[C@@]2(C)CC[C@]3(C)CC[C@]4(C)C(=CC[C@@H]5[C@@]6(C)CCC(=O)NC(C)(C)[C@@H]6CC[C@]54C)[C@@H]3C2)CC1` gave a GI50 of 1220 nM and a TGI of 2820 nM.
Work on `N#Cc1c(NCc2ccccc2)nc(NCc2ccccc2)c(C#N)c1-c1ccc(Cl)cc1` yielded a GI50 greater than 50000 nM and a TGI greater than 50000 nM.
For `Cn1cc(C2=C(c3c4n(c5ccccc35)CCNC4)C(=O)NC2=O)c2ccccc21`, the GI50 was 3810 nM and the TGI was greater than 20900 nM.
`N#CC1C[C@@H]2CC3(CCC2CN1C(=O)c1ccccc1)OCCO3` (stereo partly specified) was tested, and the GI50 was greater than 100000 nM and the TGI was greater than 100000 nM.
`O=C(CCCn1c2c(sc3ccccc32)c(=O)n2nnc(-c3ccccc3)c12)NCCc1cnc[nH]1` was tested, and the GI50 was 664 nM and the TGI was 1940 nM.
Work on `CCC(C)(C)c1cc(O)c(C(C)(C)CC)cc1O` yielded a GI50 of 2110 nM and a TGI of 5800 nM.
For `OCc1ccc(-c2csc(-c3ccc(CO)o3)c2)o1`, the GI50 was 188 nM and the TGI was 486 nM.
With `CC(=O)NC(C)(C)C(=O)N[C@@H](C)C(=O)NC(C)(C)C(=O)N[C@@H](C)C(=O)NC(C)(C)C(=O)N[C@@H](C)C(=O)N[C@@H](CCC(N)=O)C(=O)NC(C)(C)C(=O)N[C@H](C(=O)NC(C)(C)C(=O)NCC(=O)N[C@@H](CC(C)C)C(=O)NC(C)(C)C(=O)N1CCC[C@H]1C(=O)N[C@H](C(=O)NC(C)(C)C(=O)NC(C)(C)C(=O)N[C@@H](CCC(N)=O)C(=O)N[C@@H](CCC(N)=O)C(=O)N[C@H](CO)CC1CCCCC1)C(C)C)C(C)C` (Ac-[Aib]A[Aib]A[Aib]AQ[Aib]V[Aib]GL[Aib]PV[Aib][Aib]QQ-X13) the GI50 was 665 nM and the TGI was greater than 4350 nM.
Work on `COc1ccc2c(c1)N(Cc1ccc(Cl)cc1)CCC2N1CCCC1=O` (stereo unspecified) yielded a GI50 of 3410 nM and a TGI of 19900 nM.
In the case of `Oc1cc(N2CC2)c(O)cc1N1CC1`, the GI50 is reported as 201 nM and the TGI is reported as 1270 nM.
Compound `CCn1c(-c2nonc2N)nc2c(C#CC(C)(C)O)ncc(OC3CCNCC3)c21` has a GI50 of 267 nM and a TGI of 10400 nM.
In the case of `C/C(CCC(=O)O)=N/Nc1ccc([N+](=O)[O-])cc1`, the GI50 is reported as greater than 100000 nM and the TGI is reported as greater than 100000 nM.
With `CN1CCN(Cc2ccc(NC(=O)c3cncc(C#Cc4c(N)ncc5ccc(C#N)cc45)c3)cc2C(F)(F)F)CC1` the GI50 was 2890 nM and the TGI was 11500 nM.
In the case of `Cc1ccc(C2=Nn3c(nnc3-c3ccccc3)SC2)cc1`, the GI50 is reported as 1690 nM and the TGI is reported as 8080 nM.
